Measurements reported in the supplement of paper PMC10307832.

Experiments:
Assay in all cases: relative viability (nuclei count vs DMSO), 5 days (fraction); higher = more cells survive
Ibrutinib + Alpelisib = compound: C=CC(=O)N1CCC[C@@H](n2nc(-c3ccc(Oc4ccccc4)cc3)c3c(N)ncnc32)C1 [Ibrutinib] + Cc1nc(NC(=O)N2CCC[C@H]2C(N)=O)sc1-c1ccnc(C(C)(C)C(F)(F)F)c1 [Alpelisib] (partner 2 µM)
In short: (§1)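 Lung cancer cell lines were seeded in 1536-well plates and dosed by pin tool the next day, with either a single drug or a fixed anchor-drug dose combined with five library-drug doses (not always all listed) spaced in √10 steps. Five days later, one step fixed the cells and stained their nuclei (final 0.05% Triton X-100, 1% formaldehyde, 1 ug/ml Hoechst), and nuclei were counted on 4× images. Relative viability is the nuclei count in treated wells divided by the count in vehicle wells, and each value is the median of duplicate plates.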

BMX-IN-1 + Luminespib = compound: C=CC(=O)Nc1cc(-n2c(=O)ccc3cnc4ccc(-c5ccc(NS(C)(=O)=O)cc5)cc4c32)ccc1C [BMX-IN-1] + CCNC(=O)c1noc(-c2cc(C(C)C)c(O)cc2O)c1-c1ccc(CN2CCOCC2)cc1 [Luminespib] (partner 0.01 µM)
In short: as §1

PAC-1 + AZD7762 = compound: C=CCc1cccc(/C=N/NC(=O)CN2CCN(Cc3ccccc3)CC2)c1O [PAC-1] + NC(=O)Nc1cc(-c2cccc(F)c2)sc1C(=O)N[C@H]1CCCNC1 [AZD7762] (partner 0.2 µM)
In short: as §1

BMX-IN-1 + Pemetrexed = compound: C=CC(=O)Nc1cc(-n2c(=O)ccc3cnc4ccc(-c5ccc(NS(C)(=O)=O)cc5)cc4c32)ccc1C [BMX-IN-1] + Nc1nc2[nH]cc(CCc3ccc(C(=O)N[C@@H](CCC(=O)O)C(=O)O)cc3)c2c(=O)[nH]1 [Pemetrexed] (partner 0.2 µM)
In short: as §1

Cell Line	relative viability (Ibrutinib + Alpelisib; first compound 0.01581 µM)	relative viability (Ibrutinib + Alpelisib; first compound 0.05 µM)	relative viability (Ibrutinib + Alpelisib; first compound 0.1581 µM)	relative viability (Ibrutinib + Alpelisib; first compound 0.5 µM)	relative viability (BMX-IN-1 + Luminespib; first compound 0.02 µM)	relative viability (BMX-IN-1 + Luminespib; first compound 0.2 µM)	relative viability (BMX-IN-1 + Luminespib; first compound 0.6325 µM)	relative viability (BMX-IN-1 + Luminespib; first compound 2 µM)	relative viability (PAC-1 + AZD7762; first compound 0.02 µM)	relative viability (PAC-1 + AZD7762; first compound 0.06325 µM)	relative viability (PAC-1 + AZD7762; first compound 0.2 µM)	relative viability (PAC-1 + AZD7762; first compound 2 µM)	relative viability (BMX-IN-1 + Pemetrexed; first compound 0.02 µM)	relative viability (BMX-IN-1 + Pemetrexed; first compound 0.2 µM)	relative viability (BMX-IN-1 + Pemetrexed; first compound 0.6325 µM)	relative viability (BMX-IN-1 + Pemetrexed; first compound 2 µM)	relative viability (Ibrutinib + Alpelisib; first compound 0.005 µM)
EPLC-272H	1.02	0.836	0.848	0.759	0.208	0.223	0.242	0.247	0.177	0.295	0.134	0.22	0.304	0.278	0.235	0.316	–
H3255	0.699	0.474	1.05	0.214	0.851	0.907	1.02	0.927	0.993	0.802	0.772	0.931	0.52	0.583	0.686	0.563	0.555
HARA	0.763	0.681	0.974	0.332	1.01	0.207	0.683	0.682	0.229	0.304	0.0838	0.457	0.257	0.271	0.282	0.255	0.903
HCC-15	0.867	0.99	0.853	0.851	0.571	0.363	0.297	0.369	1.34	1.35	0.884	1.35	0.2	0.218	0.192	0.218	0.956
HCC-44	0.658	0.874	0.87	0.724	1.29	1.27	0.821	1.04	1.09	0.998	1.03	0.992	0.727	0.663	0.625	0.678	0.864
HCC-78	0.315	0.292	0.391	0.24	–	–	–	–	0.676	0.558	0.596	0.573	0.971	0.989	0.935	0.913	0.346
HCC-366	0.496	0.372	0.414	0.466	–	–	–	–	0.265	0.309	0.251	0.312	0.163	0.183	0.165	0.202	0.459
HCC-827	0.819	0.901	0.992	0.278	0.589	0.805	0.716	0.713	0.239	0.191	0.235	0.237	0.237	0.297	0.287	0.235	0.952
HOP-62	0.954	1.02	1.2	0.918	1.08	1.06	0.891	0.926	0.822	0.623	0.577	0.515	0.267	0.364	0.342	0.223	0.638
IA-LM	0.732	0.682	0.658	1	–	–	–	–	–	–	–	–	–	–	–	–	0.826
